Experimental data reported in US8679442B2, “Fullerene compositions and methods for photochemical purification” (William Marsh Rice University, priority 2009, dated 2014).

Tests used:
[1] = Photochemically-induced singlet oxygen production, furfuryl alcohol (FFA) degradation under BLB lamps; settings: 50 μM derivative, 0.5 mM FFA
Procedure: Photochemically-Induced Singlet Oxygen Production from Hexakis-Substituted C60 Fullerene Derivatives. Photochemical generation of singlet oxygen was performed using a magnetically stirred 60 mL cylindrical quartz reactor surrounded by six 4 W black light blue (BLB) lamps (emission wavelength region: 350-400 nm, Philips TL4W) at ambient temperature (22° C.). The incident light intensity was 3.79×10^−4 Einstein·min^−1L^−1. Reaction solutions containing 50 μM of hexakis-substituted C60 fullerene derivatives 1-4 and 0.5 mM furfuryl alcohol (FFA) as an indicator/reactant for singlet oxygen formed were buffered at pH=7 using 10 mM phosphate buffer. Thereafter, the solutions were exposed to the light source. As the photochemical reaction proceeded, 1 mL sample aliquots were periodically withdrawn from the reactor using a syringe, filtered through a 0.22 μm PTFE filter (Millipore), and injected into a 2 mL amber glass vial for further analysis. The residual FFA concentration was quantified using HPLC. […] Generation of singlet oxygen from commercially-available fullerol is presented for comparison purposes.
Table 1 summarizes the initial degradation rate of FFA in the presence of hexakis-substituted C60 fullerene derivatives 1-4 in comparison to commercially available fullerol and Rose Bengal. Initial FFA degradation rates of hexakis-substituted C60 fullerene derivatives 1-4 in the presence of L-histidine and t-butanol are also presented for comparison. […] As shown by the FFA degradation rate, the singlet oxygen production of the C60 fullerene derivatives was greatest for hexakis-substituted C60 fullerene derivative 4 and smallest for hexakis-substituted C60 fullerene derivative 1.

[2] = Triplet-state decay kinetics by laser flash photolysis; assay type: physicochemical; settings: hexane solution, comparable experimental conditions
Procedure: Measurement of Triplet-State Decay Kinetics in Hexakis-Substituted C60 Fullerene Derivatives. Decay kinetics of the triplet states for the hexakis-substituted C60 derivatives were measured by laser flash photolysis using a 308 nm laser pulse (10-20 mJ with a pulse width of 10 ns). A xenon lamp was used as the monitoring source. […] The test solutions were purged with bubbling argon gas for 15 minutes and then sealed from the atmosphere. Instantaneous generation of the triplet state was induced by laser pulse irradiation with subsequent monitoring between 650 and 770 nm, depending on the specific functional groups present in each hexakis-substituted C60 fullerene derivative.

Structure (SMILES) | Initial FFA Degradation Rate, No Scavenger ([1]; pH 7, 10 mM phosphate buffer, BLB 350-400 nm, no scavenger) | Initial FFA Degradation Rate, L-Histidine Scavenger ([1]; pH 7, BLB 350-400 nm, excess L-histidine) | Initial FFA Degradation Rate, t-Butanol Scavenger ([1]; pH 7, BLB 350-400 nm, t-butanol) | triplet state formation [2]
O=C([O-])c1c(Cl)c(Cl)c(Cl)c(Cl)c1-c1c2cc(I)c(=O)c(I)c-2oc2c(I)c([O-])c(I)cc12.[Na+].[Na+] [Rose Bengal] | 16.34 ± 0.29 | 0.07 ± 0.04 | 16.70 ± 0.47 | –
c12c3c4c5c1c1c6c7c2c2c8c3c3c9c4c4c%10c5c5c1c1c6c6c%11c7c2c2c7c8c3c3c8c9c4c4c9c%10c5c5c1c1c6c6c%11c2c2c7c3c3c8c4c4c9c5c1c1c6c2c3c41 [C60, Buckminsterfullerene] | – | – | – | not detected
